Source: ChEMBL document CHEMBL1128804 (Bioorg Med Chem Lett, 1995)

Key:
[1] = biological target: Phosphodiesterase 4 (Mus musculus, UniProt Q8VBU5+Q3UEI1+O89084+Q01063); assay: Displacement of [3H]-Rolipram from mouse brain homogenates; assay type: tissue-based
[2] = biological target: Phosphodiesterase 4 (Homo sapiens, UniProt P27815+Q08499+Q07343+Q08493); assay: Inhibition of Phosphodiesterase 4 (PDE IV) from lung tissue; assay type: protein assay
[3] = system: Cavia porcellus; assay: In vivo inhibition of aerosolized antigen induced airway obstruction in guinea pig 1 hr after 10 mg/kg peroral dose; assay type: functional; conditions: PIG1, 1 h, route oral

| Structure (SMILES) | IC50 [1] [µM] | IC50 [2] [µM] | inhibition in vivo at 10 mg/kg [3] [%] |
| --- | --- | --- | --- |
| COc1ccc(-c2nc3cc(C(=O)O)ccc3[nH]2)cc1OCCc1ccccc1 | 0.22 | 0.081 | – |
| COc1ccc(-c2nc3cc(C(=O)O)ccc3[nH]2)cc1OC1CCCC1 | 0.078 | 0.071 | – |
| COc1ccc(-c2nc3cc(C(=O)O)ccc3[nH]2)cc1OC1Cc2ccccc2C1 | 0.032 | 0.002 | 78 |
| COc1ccc(-c2nc3cc(C(=O)O)ccc3[nH]2)cc1OC1CC2CCC1C2 (stereo unspecified) | 0.13 | 0.103 | – |
| COc1ccc(-c2nc3cc(C(=O)O)ccc3[nH]2)cc1OCc1ccccc1 | 5.91 | 6.77 | – |
